In PMC6211254, “Determination of the inhibitory effects of N-methylpyrrole derivatives on glutathione reductase enzyme” (Journal of Enzyme Inhibition and Medicinal Chemistry, 2018):
“And” between values parts separate entries of the source, which are not always exact repeats. Equal values may be shown once.

Target: T1, GR from baker's yeast (S. cerevisiae) (Saccharomyces cerevisiae, UniProt P41921)
T1 sequence (P41921 17-483 limits assumed): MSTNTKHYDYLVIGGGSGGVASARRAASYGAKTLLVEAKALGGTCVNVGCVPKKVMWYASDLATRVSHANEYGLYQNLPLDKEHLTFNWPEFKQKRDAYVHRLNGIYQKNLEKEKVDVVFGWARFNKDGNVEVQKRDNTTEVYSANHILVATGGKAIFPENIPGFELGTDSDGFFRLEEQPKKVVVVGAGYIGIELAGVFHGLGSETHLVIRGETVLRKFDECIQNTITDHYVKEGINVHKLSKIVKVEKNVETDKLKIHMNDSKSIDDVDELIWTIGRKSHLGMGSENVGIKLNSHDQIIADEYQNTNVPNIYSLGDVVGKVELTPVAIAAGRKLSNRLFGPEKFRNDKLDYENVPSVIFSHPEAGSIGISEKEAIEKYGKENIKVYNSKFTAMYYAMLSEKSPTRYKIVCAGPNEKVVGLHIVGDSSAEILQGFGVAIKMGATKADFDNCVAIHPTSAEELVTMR
Experiment: Glutathione reductase inhibition (Beutler's method, NADPH and GSSG as substrates)
Type: biochemical
Conditions: 25 °C, pH 8.0; mean from at least three determinations, errors ±3%; read-out: IC50 values obtained from regression analysis graphs for GR enzyme
Experimental: Activity of the glutathione enzyme was measured by Beutler’s method[22] in which one enzyme unit is defined as the oxidation of […] NADPH per min under the assay condition at 25 °C, pH 8.0. Different concentrations of the inhibitors were applied to the enzyme solutions and all compounds were tested in triplicate at each concentration used[18–21]. Control cuvette activity was assumed as 100% in the absence of inhibitor. A graphic of activity-versus inhibitor concentration was drawn for each compound (Figure 3).
In this work, we reported GR inhibitory capacity of N-methylpyrrole derivatives (8a-r). As known, glutathione reductase has been purified from various organisms and the influences of drugs, pesticides and various chemicals on GR activity have been investigated. In the current study, GR from baker's yeast (S. cerevisiae) was used and the inhibitory potentials of the synthetized compounds were determined using Beutler method with NADPH and GSSG as substrates and further kinetic studies were performed using the same method.

| Compound | IC50 |
| --- | --- |
| Cn1cccc1-c1ccccc1 [Compound 8a] | 4940 nM |
| Cc1ccc(-c2cccn2C)cc1 [Compound 8b] | 1400 nM |
| Cc1cccc(-c2cccn2C)c1 [Compound 8c] | 1660 nM |
| Cn1cccc1-c1ccc(Br)cc1 [Compound 8e] | 1500 nM |
| COc1ccccc1-c1cccn1C [Compound 8n] | 678 nM |
| Cn1cccc1-c1ccc(C#N)cc1 [Compound 8r] | 1790 nM |
| O=NN(CCCl)C(=O)NCCCl [N,N-bis(2-chloroethyl)-N-nitrosourea, reference compound] | 645000 nM |

Other lines, results leading:

| IC50 | Compound |
| --- | --- |
| 1050 nM | Cc1ccccc1-c1cccn1C [Compound 8d] |
| 1420 nM | Cn1cccc1-c1ccc(F)cc1 [Compound 8i] |
| 104 nM | Cn1cccc1-c1ccccc1[N+](=O)[O-] [Compound 8m] |
| 678 nM and 1440 nM | COc1ccc(-c2cccn2C)cc1 [Compound 8o] |
| 846 nM | Cn1cccc1-c1ccc(OC(F)(F)F)cc1 [Compound 8q] |
